Consider twelve compounds from US6878722B2, “Substituted cycloalkyl P1′ hepatitis C virus inhibitors” (Bristol-Myers Squibb Company, priority 2002, dated 2005).

Experiment [1] deals with HCV replicon in Huh7 cells. The experiment is described as follows: HCV replicon cell-based assay (FRET). To be noted: Hepatitis C virus, Huh-7; HCV replicon; read-out: EC50 range. The method in brief:
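Huh7 cells stably carrying a genotype 1b HCV replicon (IRES-neo-EMCV-IRES-NS3-NS5B) were treated with compound for 4 days at 37 °C in 0.5% DMSO final. Lysates containing 10 μM FRET peptide RET S1 were read kinetically at 340/490 nm to give NS3 protease activity, from which EC50 was derived.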

For experiment [2], the target named is T1, HCV NS3/4A protease complex (BMS strain, genotype 1a) (Hepatitis C virus genotype 1a, UniProt P27958, C1454S).
T1 construct: DNA encoding the recombinant HCV NS3/4A protease complex (amino acids 1027 to 1711) for these strains; inferred from the pET21b vector and Ni-NTA purification; made in house; host or cells: Escherichia coli BL21 (DE3), pET21b
T1 sequence (P27958 1658-1714, looked up, stated change not applied): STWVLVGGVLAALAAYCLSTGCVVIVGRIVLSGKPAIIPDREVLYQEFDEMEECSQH
T1 sequence (P27958 1027-1657, looked up, stated change not applied): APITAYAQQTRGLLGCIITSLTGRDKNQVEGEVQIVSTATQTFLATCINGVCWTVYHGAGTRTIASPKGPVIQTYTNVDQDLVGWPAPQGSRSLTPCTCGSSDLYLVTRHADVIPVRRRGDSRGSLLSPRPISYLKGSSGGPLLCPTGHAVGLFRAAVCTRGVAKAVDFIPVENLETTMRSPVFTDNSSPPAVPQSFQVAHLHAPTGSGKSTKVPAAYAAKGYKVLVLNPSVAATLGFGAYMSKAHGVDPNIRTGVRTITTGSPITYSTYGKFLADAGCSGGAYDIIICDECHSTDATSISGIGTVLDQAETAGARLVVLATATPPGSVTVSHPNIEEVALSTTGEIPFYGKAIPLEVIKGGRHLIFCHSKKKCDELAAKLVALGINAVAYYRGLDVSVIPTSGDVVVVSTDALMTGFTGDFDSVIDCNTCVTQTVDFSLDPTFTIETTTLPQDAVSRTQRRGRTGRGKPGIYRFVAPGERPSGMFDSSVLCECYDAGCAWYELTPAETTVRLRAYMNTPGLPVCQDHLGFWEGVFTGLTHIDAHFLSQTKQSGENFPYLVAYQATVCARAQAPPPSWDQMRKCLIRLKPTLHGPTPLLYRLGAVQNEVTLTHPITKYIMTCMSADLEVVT
The experiment in a line: Recombinant HCV NS3/4A protease complex FRET peptide assay, BMS strain. The experiment is classed as biochemical. To be noted: IC50 range, NS3/4A BMS Strain. The method in brief: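 Recombinant NS3/4A complex (aa 1027–1711) with C-terminal three-lysine tail, C1711G and C1454S, expressed in E. coli BL21(DE3) and purified by Ni-NTA then Superdex-S200. Inhibition of the complex from each strain measured in vitro by FRET peptide cleavage.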

A value given as a limit tells only on which side of the number the result lay.

One may read the EC50 as the concentration needed to bring the measured effect to its halfway point. Usually IC50 stands for the concentration needed to halve the response being measured. `C=C[C@@H]1C[C@]1(NC(=O)[C@@H]1C[C@@H](Oc2cc(-c3ccccc3)nc3cc(OC)ccc23)CN1C(=O)[C@@H](NC(=O)OC(C)(C)C)C(C)C)C(=O)NS(=O)(=O)C1(COC)CC1` [Compound 54, {1-[2-[1-(1-Methoxymethyl-cyclopropanesulfonylaminocarbonyl)-2-vinyl-cyclopropylcarbamoyl]-4-(7-methoxy-2-phenyl-quinolin-4-yloxy)-pyrrolidine-1-carbonyl]-2-methyl-propyl]-carbamic acid tert-butyl ester]: the EC50 in experiment [1] is less than 50 nM. For the same compound, in experiment [2], the half-inhibitory concentration (IC50) is less than 50 nM.

Regarding `C=C[C@@H]1C[C@]1(NC(=O)[C@@H]1C[C@@H](Oc2cc(-c3ccccc3)nc3cc(OC)ccc23)CN1C(=O)[C@@H](NC(=O)OC1CCCC1)C(C)(C)C)C(=O)NS(=O)(=O)C1(Cc2ccccc2)CC1` [Compound 55, {1-[2-[1-(1-Benzyl-cycloprolanesulfonylaminocarbonyl)-2-vinyl-cycloproylcarbamoyl]-4-(7-methoxy-2-phenyl-quinolin-4-yloxy)-pyrrolidine-1-carbonyl]-2,2-dimethyl-propyl}-carbamic acid cyclopentyl ester], the concentration for a half-maximal effect (EC50) in experiment [1] is 50 to 500 nM. Moreover, the concentration for half-maximal inhibition (IC50) in experiment [2] is less than 50 nM.

In the case of `C=C[C@@H]1C[C@]1(NC(=O)[C@@H]1C[C@@H](Oc2cc(-c3ccccc3)nc3cc(OC)ccc23)CN1C(=O)[C@@H](NC(=O)OC1CCOCC1)C(C)(C)C)C(=O)NS(=O)(=O)C1(Cc2ccccc2)CC1` [Compound 56, {1-[2-[1-(1-Benzyl-cyclopropanesulfonylaminocarbonyl)-2-vinyl-cyclopropylcarbamoyl]-4-(7-methoxy-2-phenyl-quinolin-4-yloxy)-pyrrolidine-1-carbonyl]-2,2-dimethyl-propyl}-carbamic acid tetrahydro-pyran-4-yl Ester], the EC50 in experiment [1] lay within 50 to 500 nM. Also, in experiment [2], the IC50 is less than 50 nM.

Consider `C=C[C@@H]1C[C@]1(NC(=O)[C@@H]1C[C@@H](Oc2cc(-c3ccccc3)nc3cc(OC)ccc23)CN1C(=O)[C@@H](NC(=O)O[C@H]1CCOC1)C(C)(C)C)C(=O)NS(=O)(=O)C1(Cc2ccccc2)CC1` [Compound 57, {1-[2-[1-(1-Benzyl-cyclopropanesulfonylaminocarbonyl)-2-vinyl-cyclopropylcarbamoyl]-4-(7-methoxy-2-phenyl-quinolin-4-yloxy)-pyrrolidine-1-carbonyl]-2,2-dimethyl-propyl}-carbamic acid tetrahydro-furan-3-yl ester], for which, in experiment [1], the EC50 lay in the range of 50 to 500 nM. Also, the IC50 in experiment [2] is less than 50 nM.

With `C=C[C@@H]1C[C@]1(NC(=O)[C@@H]1C[C@@H](Oc2cc(-c3ccccc3)nc3cc(OC)ccc23)CN1C(=O)[C@@H](NC(=O)CC1CC1)C(C)(C)C)C(=O)NS(=O)(=O)C1(Cc2ccccc2)CC1` [Compound 58, 1-[2-(2-Cyclopropyl-acetylamino)-3,3-dimethyl-butyryl]-4-(7-methoxy-2-phenyl-quinolin-4-yloxy)-pyrrolidine-2-carboxylic acid [1-(1-benzyl-cyclopropanesulfonylaminocarbonyl)-2-vinyl-cyclopropyl]-amide], the EC50 in experiment [1] fell in the range of 50 to 500 nM. In experiment [2], the IC50 was less than 50 nM.

For the compound `C=C[C@@H]1C[C@]1(NC(=O)[C@@H]1C[C@@H](Oc2cc(-c3ccccc3)nc3cc(OC)ccc23)CN1C(=O)[C@@H](NC(=O)CC1CCOCC1)C(C)(C)C)C(=O)NS(=O)(=O)C1(Cc2ccccc2)CC1` [Compound 59, 1-[3,3-Dimethyl-2-(2-tetrahydro-pyran-4-yl-acetylamino)-butyryl]-4-(7-methoxy-2-phenyl-quinolin-4-yloxy)-pyrrolidine-2-carboxylic acid [1-(1-benzyl-cyclopropanesulfonylaminocarbonyl)-2-vinyl-cyclopropyl]-amide], the concentration for a half-maximal effect (EC50) in experiment [1] is 50 to 500 nM. Besides, the 50% inhibitory concentration (IC50) in experiment [2] was less than 50 nM.

On to `C=C[C@@H]1C[C@]1(NC(=O)[C@@H]1C[C@@H](Oc2cc(-c3ccccc3)nc3cc(OC)ccc23)CN1C(=O)[C@@H](NC(=O)C1CCOCC1)C(C)(C)C)C(=O)NS(=O)(=O)C1(Cc2ccccc2)CC1` [Compound 60, 1-{3,3-Dimethyl-2-[(tetrahydro-pyran-4-carbonyl)-amino]-butyryl}-4-(7-methoxy-2-phenyl-quinolin-4-yloxy)-pyrrolidine-2-carboxylic acid [1-(1-benzyl-cyclopropanesulfonylaminocarbonyl)-2-vinyl-cyclopropyl]-amide], for which, in experiment [1], the 50% effective concentration (EC50) was in the range of 500 to 5000 nM. Further, the IC50 in experiment [2] is less than 50 nM.

Regarding `C=C[C@@H]1C[C@]1(NC(=O)[C@@H]1C[C@@H](Oc2cc(-c3ccccc3)nc3cc(OC)ccc23)CN1C(=O)[C@@H](NC(=O)NCC)C(C)(C)C)C(=O)NS(=O)(=O)C1(Cc2ccccc2)CC1` [Compound 61, 1-[2-(3-Ethyl-ureido)-3,3-dimethyl-butyryl]-4-(7-methoxy-2-phenyl-quinolin-4-yloxy)-pyrrolidine-2-carboxylic acid [1-(1-benzyl-cyclopropanesulfonylaminocarbonyl)-2-vinyl-cyclopropyl]-amide], the concentration for a half-maximal effect (EC50) in experiment [1] lay within 50 to 500 nM. Further, the half-maximal inhibitory concentration (IC50) in experiment [2] is less than 50 nM.

As to `C=C[C@@H]1C[C@]1(NC(=O)[C@@H]1C[C@@H](Oc2cc(-c3ccccc3)nc3cc(OC)ccc23)CN1C(=O)[C@@H](NC(=O)NC(C)(C)C)C(C)(C)C)C(=O)NS(=O)(=O)C1(Cc2ccccc2)CC1` [Compound 62, 1-[2-(3-tert-Butyl-ureido)-3,3-dimethyl-butyryl]-4-(7-methoxy-2-phenyl-quinolin-4-yloxy)-pyrrolidine-2-carboxylic acid [1-(1-benzylcyclopropanesulfonylaminocarbonyl)-2-vinyl-cyclopropyl]-amide], in experiment [1], the concentration for a half-maximal effect (EC50) lay within 50 to 500 nM. In addition, the IC50 in experiment [2] is less than 50 nM.

For the compound `C=C[C@@H]1C[C@]1(NC(=O)[C@@H]1C[C@@H](Oc2ccnc3cc(Cl)ccc23)CN1C(=O)[C@@H](NC(=O)OC1CCCC1)C(C)(C)C)C(=O)NS(=O)(=O)C1(C)CC1` [Compound 63, (1-{4-(7-Chloro-quinolin-4-yloxy)-2-[1-(1-methyl-cyclopropanesulfonylaminocarbonyl)-2-vinyl-cyclopropylcarbamoyl]-pyrrolidine-1-carbonyl}-2,2-dimethyl-propyl)-carbamic acid cyclopentyl ester], the half-maximal effective concentration (EC50) in experiment [1] is less than 50 nM. The IC50 in experiment [2] was less than 50 nM.

Consider `C=C[C@@H]1C[C@]1(NC(=O)[C@@H]1C[C@@H](Oc2ccnc3cc(Cl)ccc23)CN1C(=O)[C@@H](NC(=O)OC1CCCC1)C(C)(C)C)C(=O)NS(=O)(=O)C1(CCC)CC1` [Compound 64, (1-{4-(7-Chloro-quinolin-4-yloxy)-2-[1-(1-propyl-cyclopropanesulfonylaminocarbonyl)-2-vinyl-cyclopropylcarbamoyl]-pyrrolidine-1-carbonyl}-2,2-dimethyl-propyl)-carbamic acid cyclopentyl ester], for which the EC50 in experiment [1] fell in the range of 50 to 500 nM. Moreover, in experiment [2], the IC50 is less than 50 nM.

With `C=C[C@@H]1C[C@]1(NC(=O)[C@@H]1C[C@@H](Oc2ccnc3cc(Cl)ccc23)CN1C(=O)[C@@H](NC(=O)OC1CCCC1)C(C)(C)C)C(=O)NS(=O)(=O)C1(CCCC)CC1` [Compound 65, {1-[2-[1-(1-Butyl-cyclopropanesulfonylaminocarbonyl)-2-vinyl-cyclopropylcarbamoyl]-4-(7-chloro-quinolin-4-yloxy)-pyrrolidine-1-carbonyl]-2,2-dimethyl-propyl}-carbamic acid cyclopentyl ester], the concentration giving a half-maximal response (EC50) in experiment [1] was in the range of 50 to 500 nM. Further, the IC50 in experiment [2] is less than 50 nM.
